Drawing on patent US20250122219A1 (priority 2023, published 2025), this text covers CC50 for 15 compounds.

Structures are written as SMILES.

A short description of the data set: Cytotoxicity assay in MT-4 cells. The conditions noted are these: human; uninfected MT-4 cells, 5 days incubation, Cell Titer Glo; read-out: MT4 CC50. The data set is classed as cell-based. As for the experimental part:
Compounds were tested in a high-throughput 384-well assay format for their ability to inhibit the replication of HIV-1 (IIIB) in MT-4 cells. Compounds were serially diluted (1.3) in DMSO on 384-well polypropylene plates and further diluted 200-fold into complete RPMI media (10% FBS, 1% P/S) using the Biotek Micro Flow and Labcyte ECHO acoustic dispenser. Each plate contained up to 8 test compounds, with negative (No Drug Control) and 5 μM AZT positive controls. MT-4 cells were pre-infected with 10 μL of either RPMI (mock-infected) or a fresh 1:250 dilution of HIV-1 IIIB concentrated virus stock. Infected and uninfected MT-4 cells were further diluted in complete RPMI media and added to each plate using a Micro Flow dispenser. After 5 days incubation in a humidified and temperature controlled incubator (37° C.), Cell Titer Glo (Promega) was added to the assay plates and chemiluminescence read using an Envision plate-reader.
Assays were performed as above except uninfected MT-4 cells were added to each well containing test compound. In addition, […] puromycin was added to the last column of each assay plate to assess a base level of cytotoxicity.
On the technique in general: ATP-based viability assays read luminescence as a measure of living cells.
On to `COC1=NO[C@@]2(CC[C@H](C)N3C[C@H]2n2cc(C(=O)NCc4ccc(F)cc4F)c(=O)c(OC(=O)C(C)C)c2C3=O)C1` [Example 48, (3′S,5S,7′R)-10′-((2,4-difluorobenzyl)carbamoyl)-3-methoxy-3′-methyl-1′,11′-dioxo-1′,4′,5′,11′-tetrahydro-3′H,4H,7′H-spiro[isoxazole-5,6′-[2,7]methanopyrido[1,2-a][1,4]diazonin]-12′-yl isobutyrate], for which the half-maximal cytotoxic concentration (CC50) (as a rule, the concentration giving 50% cytotoxicity) at 5 days was 22.4 µM.

With `CC1=NO[C@@]2(CC[C@H](C)N3C[C@H]2n2cc(C(=O)NCc4ccc(F)cc4F)c(=O)c(OC(=O)C(C)C)c2C3=O)C1` [Example 49, (3′S,5S,7′R)-10′-((2,4-difluorobenzyl)carbamoyl)-3,3′-dimethyl-1′,11′-dioxo-1′,4′,5′,11′-tetrahydro-3′H,4H,7′H-spiro[isoxazole-5,6′-[2,7]methanopyrido[1,2-a][1,4]diazonin]-12′-yl isobutyrate], the CC50 at 5 days turned out to be 15.1 µM.

In the case of `CCC(C)C(=O)Oc1c2n(cc(C(=O)NCc3ccc(F)cc3F)c1=O)[C@@H]1CN(C2=O)[C@@H](C)CC[C@]12CC(OC)=NO2` (stereo partly drawn) [Example 50, (3′S,5S,7′R)-10′-((2,4-difluorobenzyl)carbamoyl)-3-methoxy-3′-methyl-1′,11′-dioxo-1′,4′,5′,11′-tetrahydro-3′H,4H,7′H-spiro[isoxazole-5,6′-[2,7]methanopyrido[1,2-a][1,4]diazonin]-12′-yl 2-methylbutanoate], the half-maximal cytotoxic concentration (CC50) at 5 days amounted to 21.7 µM.

Regarding `CCC(C)C(=O)Oc1c2n(cc(C(=O)NCc3ccc(F)cc3F)c1=O)[C@@H]1CN(C2=O)[C@@H](C)CC[C@]12CC(C)=NO2` (stereo partly drawn) [Example 51, (3′S,5S,7′R)-10′-((2,4-difluorobenzyl)carbamoyl)-3,3′-dimethyl-1′,11′-dioxo-1′,4′,5′,11′-tetrahydro-3′H,4H,7′H-spiro[isoxazole-5,6′-[2,7]methanopyrido[1,2-a][1,4]diazonin]-12′-yl 2-methylbutanoate], the CC50 at 5 days was 20 µM.

For the compound `CC1=NO[C@@]2(CC[C@H](C)N3C[C@H]2n2cc(C(=O)NCc4ccc(F)cc4F)c(=O)c(OC(=O)CCCC(=O)O)c2C3=O)C1` [Example 72, 5-(((3′S,5S,7′R)-10′-((2,4-difluorobenzyl)carbamoyl)-3,3′-dimethyl-1′,11′-dioxo-1′,4′,5′,11′-tetrahydro-3′H,4H,7′H-spiro[isoxazole-5,6′-[2,7]methanopyrido[1,2-a][1,4]diazonin]-12′-yl)oxy)-5-oxopentanoic acid], the CC50 at 5 days is 10.8 µM.

Turning to `COC1=NO[C@@]2(CC[C@H](C)N3C[C@H]2n2cc(C(=O)NCc4ccc(F)cc4F)c(=O)c(OC(=O)CCCCCC(=O)O)c2C3=O)C1` [Example 74, 7-(((3′S,5S,7′R)-10′-((2,4-difluorobenzyl)carbamoyl)-3-methoxy-3′-methyl-1′,11′-dioxo-1′,4′,5′,11′-tetrahydro-3′H,4H,7′H-spiro[isoxazole-5,6′-[2,7]methanopyrido[1,2-a][1,4]diazonin]-12′-yl)oxy)-7-oxoheptanoic acid], the cytotoxic concentration (CC50) at 5 days stood at 26.3 µM.

As to `COC(=O)N[C@@H](C)C(=O)Oc1c2n(cc(C(=O)NCc3ccc(F)cc3F)c1=O)[C@@H]1CN(C2=O)[C@@H](C)CC[C@]12CC(OC)=NO2` [Example 78], the 50% cytotoxic concentration (CC50) at 5 days was 16.2 µM.

As to `COC(=O)N[C@@H](C)C(=O)Oc1c2n(cc(C(=O)NCc3ccc(F)cc3F)c1=O)[C@@H]1CN(C2=O)[C@@H](C)CC[C@]12CC(C)=NO2` [Example 79], the CC50 at 5 days came out at 19.5 µM.

Take `COC1=NO[C@@]2(CC[C@H](C)N3C[C@H]2n2cc(C(=O)NCc4ccc(F)cc4F)c(=O)c(OCOC(=O)C(C)C)c2C3=O)C1` [Example 108, (((3′S,5S,7′R)-10′-((2,4-difluorobenzyl)carbamoyl)-3-methoxy-3′-methyl-1′,11′-dioxo-1′,4′,5′,11′-tetrahydro-3′H,4H,7′H-spiro[isoxazole-5,6′-[2,7]methanopyrido[1,2-a][1,4]diazonin]-12′-yl)oxy)methyl isobutyrate]: the CC50 at 5 days came to 21.7 µM.

Take `CC1=NO[C@@]2(CC[C@H](C)N3C[C@H]2n2cc(C(=O)NCc4ccc(F)cc4F)c(=O)c(OCOC(=O)C(C)C)c2C3=O)C1` [Example 109, (((3′S,5S,7′R)-10′-((2,4-difluorobenzyl)carbamoyl)-3,3′-dimethyl-1′,11′-dioxo-1′,4′,5′,11′-tetrahydro-3′H,4H,7′H-spiro[isoxazole-5,6′-[2,7]methanopyrido[1,2-a][1,4]diazonin]-12′-yl)oxy)methyl isobutyrate]: the CC50 at 5 days was determined as 15.5 µM.

On to `COC(=O)Oc1c2n(cc(C(=O)NCc3ccc(F)cc3F)c1=O)[C@@H]1CN(C2=O)[C@@H](C)CC[C@]12CC(OC)=NO2` [Example 122, (03'S,5S,7′R)-10′-((2,4-difluorobenzyl)carbamoyl)-3-methoxy-3′-methyl-1′,11′-dioxo-1′,4′,5′,11′-tetrahydro-3′H,4H,7′H-spiro[isoxazole-5,6′-[2,7]methanopyrido[1,2-a][1,4]diazonin]-12′-yl methyl carbonate], for which the CC50 at 5 days was found to be 19.8 µM.

With `CCCOC(=O)Oc1c2n(cc(C(=O)NCc3ccc(F)cc3F)c1=O)[C@@H]1CN(C2=O)[C@@H](C)CC[C@]12CC(C)=NO2` [Example 125, (3′S,5S,7′R)-10′-((2,4-difluorobenzyl)carbamoyl)-3,3′-dimethyl-1′,11′-dioxo-1′,4′,5′,11′-tetrahydro-3′H,4H,7′H-spiro[isoxazole-5,6′-[2,7]methanopyrido[1,2-a][1,4]diazonin]-12′-yl propyl carbonate], the CC50 at 5 days was 18.5 µM.

For the compound `CCCOC(=O)Oc1c2n(cc(C(=O)NCc3ccc(F)cc3F)c1=O)[C@@H]1CN(C2=O)[C@@H](C)CC[C@]12CC(OC)=NO2` [Example 126, (3′S,5S,7′R)-10′-((2,4-difluorobenzyl)carbamoyl)-3-methoxy-3′-methyl-1′,11′-dioxo-1′,4′,5′,11′-tetrahydro-3′H,4H,7′H-spiro[isoxazole-5,6′-[2,7]methanopyrido[1,2-a][1,4]diazonin]-12′-yl propyl carbonate], the CC50 at 5 days is 21.9 µM.

As to `CC1=NO[C@@]2(CC[C@H](C)N3C[C@H]2n2cc(C(=O)NCc4ccc(F)cc4F)c(=O)c(OC(=O)OCCCCCCC(C)C)c2C3=O)C1` [Example 158, (3′S,5S,7′R)-10′-((2,4-difluorobenzyl)carbamoyl)-3,3′-dimethyl-1′,11′-dioxo-1′,4′,5′,11′-tetrahydro-3′H,4H,7′H-spiro[isoxazole-5,6′-[2,7]methanopyrido[1,2-a][1,4]diazonin]-12′-yl (7-methyloctyl) carbonate], the 50% cytotoxic concentration (CC50) at 5 days came out at 16.8 µM.

Regarding `COC1=NO[C@@]2(CC[C@H](C)N3C[C@H]2n2cc(C(=O)NCc4ccc(F)cc4F)c(=O)c(OC(=O)OCCCCCCC(C)C)c2C3=O)C1` [Example 159, (3′S,5S,7′R)-10′-((2,4-difluorobenzyl)carbamoyl)-3-methoxy-3′-methyl-1′,11′-dioxo-1′,4′,5′,11′-tetrahydro-3′H,4H,7′H-spiro[isoxazole-5,6′-[2,7]methanopyrido[1,2-a][1,4]diazonin]-12′-yl (7-methyloctyl) carbonate], the 50% cytotoxic concentration (CC50) at 5 days came to 35.9 µM.
